target: T1, hFXR (Homo sapiens, UniProt Q96RI1); test: In Vitro FXR Assay (TK): TK-ECRE-luc reporter in transfected CV-1 cells; type: cell-based; conditions: 18 hrs incubation, luminescence
T1 construct: expressed in transfected cells; host or cells: CV-1 cells
T1 sequence (Q96RI1 1-486): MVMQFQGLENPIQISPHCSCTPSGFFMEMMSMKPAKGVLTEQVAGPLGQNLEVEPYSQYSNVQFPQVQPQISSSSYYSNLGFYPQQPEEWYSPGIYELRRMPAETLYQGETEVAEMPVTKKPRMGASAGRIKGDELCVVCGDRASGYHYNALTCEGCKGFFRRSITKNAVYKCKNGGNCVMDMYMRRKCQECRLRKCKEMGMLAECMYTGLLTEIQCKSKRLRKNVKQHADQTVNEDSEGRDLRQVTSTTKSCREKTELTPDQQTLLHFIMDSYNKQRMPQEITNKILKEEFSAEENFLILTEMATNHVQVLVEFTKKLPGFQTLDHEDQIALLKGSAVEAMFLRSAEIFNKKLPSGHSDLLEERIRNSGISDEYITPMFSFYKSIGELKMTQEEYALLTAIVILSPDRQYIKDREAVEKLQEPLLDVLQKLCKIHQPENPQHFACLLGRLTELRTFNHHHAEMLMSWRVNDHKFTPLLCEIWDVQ
T1 sequence (P19793 1-462 partner): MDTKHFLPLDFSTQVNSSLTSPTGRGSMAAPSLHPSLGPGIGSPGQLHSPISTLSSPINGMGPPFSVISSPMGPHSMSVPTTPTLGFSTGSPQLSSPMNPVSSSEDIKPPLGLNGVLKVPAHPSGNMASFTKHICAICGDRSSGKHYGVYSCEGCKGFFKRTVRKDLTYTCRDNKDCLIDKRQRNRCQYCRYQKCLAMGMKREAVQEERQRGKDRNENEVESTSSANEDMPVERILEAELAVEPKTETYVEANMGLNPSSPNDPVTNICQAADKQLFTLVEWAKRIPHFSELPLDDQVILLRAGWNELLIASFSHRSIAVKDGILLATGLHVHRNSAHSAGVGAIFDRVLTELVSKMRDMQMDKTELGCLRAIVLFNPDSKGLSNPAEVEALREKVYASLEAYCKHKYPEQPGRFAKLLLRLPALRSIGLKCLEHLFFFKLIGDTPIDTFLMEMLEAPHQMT
Outline: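 CV-1, DMEM/10% charcoal-stripped FBS, 37 °C 5% CO2. Transfection O/N: hFXR + hRXR + TK-ECRE-luc + pCMX-YFP. Cpds (DMSO serial dil.) 18 h; lyse, read luminescence.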

EC50 [nM]	Compound
≤ 50	COc1ccc(C23CCC(CN(c4cccc(-c5cnn(C(C)C)c5)c4F)C(=O)[C@H]4CC[C@H](OC(=O)N5CC(O)C5)CC4)(CC2)CC3)cc1C [Compound 25.04, 4-((2-Fluoro-3-(1-isopropyl-1H-pyrazol-4-yl)phenyl)((4-(4-methoxy-3-methylphenyl)bicyclo[2.2.2]octan-1-yl)methyl)carbamoyl)cyclohexyl trans-3-hydroxyazetidine-1-carboxylate]
≤ 50	COc1ccc(C23CCC(CN(c4cccc(-c5cnn(C(C)C)c5)n4)C(=O)[C@H]4CC[C@H](OC(=O)N5CC(O)C5)CC4)(CC2)CC3)cc1C [Compound 23.25, 4-((6-(1-Isopropyl-1H-pyrazol-4-yl)pyridin-2-yl)((4-(4-methoxy-3-methylphenyl)bicyclo[2.2.2]octan-1-yl)methyl)carba-moyl)cyclohexyl trans-3-hydroxy-azetidine-1-carboxylate]
≤ 50	COCC1CN(C(=O)O[C@H]2CC[C@H](C(=O)N(CC34CCC(c5ccc(OC)c(C)c5)(CC3)CC4)c3cc(-c4cnn(C(C)C)c4)ccn3)CC2)C1 [Compound 4.41, 4-((4-(1-Isopropyl-1H-pyrazol-4-yl)pyridin-2-yl) ((4-(4-methoxy-3-methylphenyl)bicyclo [2.2.2]octan-1-yl)methyl)carbamoyl)cyclohexyl trans-3-(methoxymethyl) azetidine-1-carboxylate]
≤ 50	COc1ccc([C@H]2CC[C@H](CN(c3cc(-c4cnn(C(C)C)c4)ccn3)C(=O)[C@H]3CC[C@H](OC(=O)N4CC(CO)C4)CC3)CC2)cc1C [Compound 2.03, trans-4-((4-(1-Isopropyl-1H-pyrazol-4-yl)pyridin-2-yl)(((trans)-4-(4-methoxy-3-methylphenyl)cyclohexyl)methyl)carbamoyl)cyclohexyl 3-(hydroxymethyl) azetidine-1-carboxylate]
≤ 50	COc1ccc(C23CCC(CN(c4cc(-c5cnn(C6(C)CCC6)c5)ccn4)C(=O)[C@H]4CC[C@H](OC(=O)NCCO)CC4)(CC2)CC3)cc1C [Compound 25.16, 4-(((4-(4-Methoxy-3-methylphenyl)bicyclo[2.2.2]octan-1-yl)methyl)(4-(1-(1-methylcyclobutyl)-1H-pyrazol-4-yl)pyridin-2-yl)carbamoyl)(trans-cyclohexyl)(2-hydroxyethyl)carbamate]
≤ 50	COc1ncc([C@H]2CC[C@H](CN(c3cc(-c4cnn(C(C)C)c4)ccn3)C(=O)[C@H]3CC[C@H](OC(=O)N4CC(N(C)C)C4)CC3)CC2)cc1Cl [Compound 1.08, trans-4-((((trans)-4-(5-Chloro-6-methoxypyridin-3-yl)cyclohexyl)methyl)(4-(1-isopropyl-1H-pyrazol-4-yl)pyridin-2-yl)carbamoyl)cyclohexyl 3-(dimethylamino)azetidine-1-carboxylate]
≤ 50	COc1ncc([C@H]2CC[C@H](CN(c3cc(-c4coc(C5CC5)n4)ccn3)C(=O)[C@H]3CC[C@H](OC(=O)N4CCN(C)CC4)CC3)CC2)cc1Cl [Compound 1.07, trans-4-((((trans)-4-(5-Chloro-6-methoxypyridin-3-yl)cyclohexyl)methyl)(4-(2-cyclopropyloxazol-4-yl)pyridin-2-yl)carbamoyl)cyclohexyl 4-methylpiperazine-1-carboxylate]
≤ 50	COc1ccc(C23CCC(CN(c4cc(-c5cnn(C(C)C)c5)ccn4)C(=O)[C@H]4CC[C@H](OC(=O)N5CC(O)C5)CC4)(CC2)CC3)nc1C [Compound 26.20, 4-((4-(1-Isopropyl-1H-pyrazol-4-yl)pyridin-2-yl)((4-(5-methoxy-6-methylpyridin-2-yl)bicyclo[2.2.2]octan-1-yl)methyl)carbamoyl)cyclohexyl trans-3-hydroxyazetidine-1-carboxylate]
≤ 50	COc1ccc([C@H]2CC[C@H](CN(c3cc(-c4cnc(C(C)C)o4)ccn3)C(=O)[C@H]3CC[C@H](OC(=O)N4CC(O)C4)CC3)CC2)cc1C [Compound 2.37, trans-4-((4-(2-Isopropyloxazol-5-yl)pyridin-2-yl)((trans-4-(4-methoxy-3-methylphenyl)cyclohexyl)methyl)carbamoyl)cyclohexyl 3-hydroxyazetidine-1-carboxylate]
≤ 50	COc1ccc([C@H]2CC[C@H](CN(c3cc(-c4cnc(C5CC5)s4)ccn3)C(=O)[C@H]3CC[C@H](OC(=O)N4CCN(C)CC4)CC3)CC2)cc1C [Compound 2.27, trans-4-((4-(2-Cyclopropylthiazol-5-yl)pyridin-2-yl)(((trans)-4-(4-methoxy-3-methylphenyl)cyclohexyl)methyl)carbamoyl)cyclohexyl 4-methylpiperazine-1-carboxylate]
≤ 50	COc1ccc([C@H]2CC[C@H](CN(c3cc(-c4cnc(C5CC5)s4)ccn3)C(=O)[C@H]3CC[C@H](OC(=O)N4CCN(C)CC4)CC3)CC2)cc1Cl [Compound 2.08, trans-4-(((trans-4-(3-Chloro-4-methoxyphenyl)cyclohexyl)methyl)(4-(2-cyclopropylthiazol-5-yl)pyridin-2-yl)carbamoyl)cyclohexyl 4-methylpiperazine-1-carboxylate]
≤ 50	COc1ccc(C23CCC(CN(c4ccc(F)c(-c5cnn(C(C)C)c5)c4)C(=O)[C@H]4CC[C@H](OC(=O)NCCCO)CC4)(CC2)CC3)cc1C [Compound 25.08, 4-((4-Fluoro-3-(1-isopropyl-1H-pyrazol-4-yl)phenyl)((4-(4-methoxy-3-methylphenyl)bicyclo[2.2.2]octan-1-yl)methyl)carbamoyl)cyclohexyl trans-(3-hydroxypropyl)carbamate]
≤ 50	COc1ccc(C23CCC(CN(c4ccc(F)c(-c5cnn(C(C)C)c5)c4)C(=O)[C@H]4CC[C@H](OC(=O)N5CC(CO)C5)CC4)(CC2)CC3)cc1C [Compound 25.09, 4-((4-Fluoro-3-(1-isopropyl-1H-pyrazol-4-yl)phenyl)((4-(4-methoxy-3-methylphenyl)bicyclo[2.2.2]octan-1-yl)methyl)carbamoyl)cyclohexyl trans-3-(hydroxymethyl)azetidine-1-carboxylate]
≤ 50	COc1ccc(C23CCC(CN(c4ccc(F)c(-c5cnn(C(C)C)c5)c4F)C(=O)[C@H]4CC[C@H](OC(=O)N5CC(O)C5)CC4)(CC2)CC3)cc1C [Compound 25.15, 4-((2,4-Difluoro-3-(1-isopropyl-1H-pyrazol-4-yl)phenyl)((4-(4-methoxy-3-methylphenyl)bicyclo[2.2.2]octan-1-yl)methyl)carbamoyl)cyclohexyl trans-3-hydroxyazetidine-1-carboxylate]
50 to 1000	CCOC(=O)NC[C@H]1CC[C@H](C(=O)N(C[C@H]2CC[C@H](c3ccc(OC)c(C)c3)CC2)c2cccc(-c3cnn(C(C)C)c3)c2)CC1 [Compound 12.03, Ethyl (((trans)-4-((3-(1-isopropyl-1H-pyrazol-4-yl)phenyl)(((trans)-4-(4-methoxy-3-methylphenyl)cyclohexyl)methyl)carbamoyl)cyclohexyl)methyl)car-bamate]
≤ 50	COc1ccc([C@H]2CC[C@H](CN(c3cc(-c4cnn(C(C)C)c4)ccn3)C(=O)[C@H]3CC[C@H](OC(=O)NCC(C)F)CC3)CC2)cc1C (stereo partly drawn) [Compound 2.28, trans-4-((4-(1-Isopropyl-1H-pyrazol-4-yl)pyridin-2-yl)(((trans)-4-(4-methoxy-3-methylphenyl)cyclohexyl)methyl)carbamoyl) cyclohexyl(2-fluoropropyl)carbamate]
≤ 50	COc1ccc([C@H]2CC[C@H](CN(c3cc(-c4coc(C(C)C)n4)ccn3)C(=O)[C@H]3CC[C@H](OC(=O)N4CCN(C)CC4)CC3)CC2)cc1C [Compound 2.25, trans-4-((4-(2-Isopropyloxazol-4-yl)pyridin-2-yl)(((trans)-4-(4-methoxy-3-methylphenyl)cyclohexyl)methyl)carbamoyl)cyclohexyl 4-methylpiperazine-1-carboxylate]
50 to 1000	COc1ccc([C@H]2CC[C@H](CN(c3cc(-c4coc(C(C)C)n4)ccn3)C(=O)[C@H]3CC[C@H](OC(=O)NCC(C)(C)CO)CC3)CC2)nc1C [Compound 1.01, trans-4-((4-(2-Isopropyloxazol-4-yl)pyridin-2-yl)((trans-4-(5-methoxy-6-methylpyridin-2-yl)cyclohexyl)methyl)carbamoyl) cyclohexyl (3-hydroxy-2,2-dimethylpropyl)carbamate]
≤ 50	COc1ncc([C@H]2CC[C@H](CN(c3cc(-c4cnn(C(C)C)c4)ccn3)C(=O)[C@H]3CC[C@H](OC(=O)N4CCN(C)CC4)CC3)CC2)cc1Cl [Compound 1.09, trans-4-((((trans)-4-(5-Chloro-6-methoxypyridin-3-yl)cyclohexyl)methyl)(4-(1-isopropyl-1H-pyrazol-4-yl)pyridin-2-yl)carbamoyl)cyclohexyl 4-methylpiperazine-1-carboxylate]

From US20220056019A1, “FARNESOID X RECEPTOR AGONISTS AND USES THEREOF” (Metacrine, Inc., priority 2018, published 2022)
